In publication PMC2228116 (British Journal of Cancer, 1997):
Values joined by “and” are separate entries in the source; they are usually repeats but may differ in a detail not shown here. Identical values can stand only once.

Legend:
in vitro = conditions: male, Wistar, rat, pH 7.4
Procedure: (§1) British Joumal of Cancer (1997) 76(9), 1170-1180 ? […] Livers were perfused with 5-FU alone at a dose of 15 mg kg-' body weight or with 5-FU + GW776 at doses of 15 mg 5-FU kg-' body weight and 0.5 mg GW776 kg-' body weight injected 1 h before 5-FU. […] Keywords: 5-fluorouracil; 5-ethynyluracil (GW776); 19F nuclear magnetic resonance; modulation of 5-fluorouracil metabolism; fluoroacetate; 2-fluoro-3-hydroxypropionic acid; isolated perfused rat liver 5-Fluorouracil (5-FU) is one of the most commonly used anti- cancer agents for treatment of solid tumours. Common clinical adverse reactions include myelosuppression, diarrhoea, vomiting and mucositis. […] 5-Ethynyluracil (GW776) is a potent inactivator of the catabolic pathway of 5-FU acting on dihydropyrimidine dehydrogenase (DPD), the enzyme that converts 5-FU into its first catabolite, 5,6-dihydro-5-fluorouracil (FUH2), thereby preserving 5-FU from its rapid and extensive catabolism (Porter et al, 1992; Baccanari et al, 1993; Spector et al, 1993). […] MATERIALS AND METHODS IPRL experiments Livers from male Wistar rats (Iffa Credo, Lyon, France) were isolated and perfused with recirculation of the perfusion medium according to the design originally described by Brauer et al (1951) and modified by Sabouraud et al (1993). The recirculating perfusate (approximately 180 ml), oxygenated with oxygen- carbon dioxide (95%:5%), was a Krebs-Ringer bicarbonate buffer supplemented with glucose (1.3 mM) and bovine serum albumin (0.5%). The perfusate (pH 7.4) was recirculated at a mean flow rate of 10 ml min-1 g-' of liver. The experiments were carried out with solutions of 5-FU prepared immediately before use at a dose of 15 mg kg-' body weight.

[1] = tested on: isolated perfused rat liver; experiment: in vitro
Procedure: as §1

[2] = tested on: isolated perfused rat liver; experiment: Liver viability in IPRL experiments (LDH activity in perfusate, bile flow); conditions: Table 1, text
Procedure: as §1, with “The recirculating perfusate (approximately 180 ml), oxygenated with oxygen- carbon dioxide (95%:5%), was a Krebs-Ringer bicarbonate buffer supplemented with glucose (1.3 mM) and bovine serum albumin (0.5%). The perfusate (pH 7.4) was recirculated at a mean flow rate of 10 ml min-1 g-' of liver. The experiments were carried out with solutions of 5-FU prepared immediately before use at a dose of 15 mg kg-' body weight.” left out

[3] = Control experiments without liver: chemical transformation in perfusate (19F-NMR); type: physicochemical
[4] = design: method as in Khor et al, 1996; conditions: humans, without GW776; ref Khor et al, 1996; cited from earlier work
[5] = design: method as in Zhang et al, 1992, 1993; conditions: rats; ref Zhang et al, 1992, 1993; cited from earlier work
[6] = tested on: isolated perfused rabbit heart; experiment: Cardiotoxicity on the isolated perfused rabbit heart model; conditions: unpublished data
DPD = tested on: DPD; design: method as in Baccanari et al (1993); conditions: 1 h or 6 h after single dose GW776 2 mg kg-1 p.o.; compared with > 96% of this study; ref Baccanari et al (1993); cited from earlier work
dogs = tested on: dogs; design: method as in Davis et al (1994); conditions: 26-h continuous infusion of 5-FU at 1.6, 4 or 16 mg kg-1 24 h-1; ref Davis et al (1994); cited from earlier work
mouse tumour models = tested on: mouse tumour models; design: method as in Baccanari et al, 1993; conditions: ref Baccanari et al, 1993; cited from earlier work
rat tumour models = tested on: rat tumour models; design: method as in Cao et al, 1994; conditions: ref Cao et al, 1994; cited from earlier work
MOPC-315 s.c. tumours = tested on: MOPC-315 s.c. tumours; design: method as in Davis et al (1995); conditions: compared with mice treated with 5-FU alone; ref Davis et al (1995); cited from earlier work
[7] = Table 4, liver acid-insoluble extract
[8] = FBAL 16.6 mg kg-1 circulated 3 h without liver, after concentration
[9] = GW776 0.5 mg kg-1 1 h before 5-FU 15 mg kg-1

O=c1[nH]cc(F)c(=O)[nH]1 [5-FU, 5-fluorouracil]
recovery (in vitro): 0%
Unmetabolized 5-FU, global recovery [1]: All 5-FU was metabolized
5', 2' and 3' FUMP in acid-insoluble extract [1, 7]: 0 Per cent of Injected dose
5-FU in acid-insoluble extract [1, 7]: 0 Per cent of Injected dose
5-FU in acid-soluble extract ([1]; Table 4, liver acid-soluble extract): 0 Per cent of Injected dose
Total in acid-soluble extract ([1]; Table 4, liver acid-soluble extract, P<0.01): 13 + 4 Per cent of Injected dose and 13 Per cent of Injected dose
5-FU in perfusate ([1]; male, Wistar, rat, pH 7.4): 0 Per cent of Injected dose
Unmetabolized 5-FU ([1]; male, Wistar, rat, pH 7.4): 0% of injected dose
LDH activity compared with control experiments [2]: no significant difference
Chemical transformation in perfusate ([3]; perfusate bubbled with carbogen for 3 h at 37 C): not chemically transformed
Half-life of 5-FU [4]: approximately 14 min

NCC(F)C(=O)O (stereo not drawn) [FBAL, alpha-fluoro-beta-alanine]
Adduct of FBAL with a-glucose as share of all the fluorinated compounds detected [3, 8]: 2.4%
Adduct of FBAL with beta-glucose as share of all the fluorinated compounds detected [3, 8]: 28.3%
CFBAL as share of all the fluorinated compounds detected [3, 8]: 49.6%
F- as share of all the fluorinated compounds detected [3, 8]: 1.4%
FBAL as share of all the fluorinated compounds detected [3, 8]: 18.3%
FBAL signal share ([3]; solution of FBAL in perfusion medium over 3 h): 98.9%
Retention in various tissues (mainly liver, heart and brain) [5]: up to 8 days

O=C(O)C(F)CO (stereo not drawn) [FHPA, 2-fluoro-3-hydroxypropionic acid]
Cardiotoxicity ([6]; 0.01 mg kg-1 (lowest dose)): did not generate cardiotoxic symptoms
Cardiotoxicity ([6]; 1.5 mg kg-1 (highest dose)): highly cardiotoxic

C#Cc1c[nH]c(=O)[nH]c1=O [GW776, 5-ethynyluracil]
Inhibition of rat liver ability to catalyse 5-FU degradation ([1]; GW776 0.5 mg kg-1 1 h before 5-FU): > 96%
Decrease in FBAL formation [1, 9]: approximately 110 factor
Decrease in fluoride ion formation [1, 9]: approximately 10 factor
Decrease of the amount of 5-FU catabolites in the presence of GW776 [1, 9]: 27 factor
Increase of 5-FU anabolites [1, 9]: approximately 7 factor
Inhibition of DPD activity in liver extracts (DPD): the same extent of inhibition
Protection from 5-FU-induced neurotoxicity (dogs): protected dogs from the neurotoxicity
Therapeutic index of 5-FU (mouse tumour models): increases the therapeutic index of 5-FU
Therapeutic index of 5-FU (rat tumour models): increases the therapeutic index of 5-FU
Incorporation of 5-FU into RNA in tumours (MOPC-315 s.c. tumours): enhanced the incorporation
